Source: the NIST ThermoML archive (doi:10.1021/je034290l)

Tests used:
[1] = Liquid
[2] = refractive index (Na D-line) (dimensionless); conditions: 318.15 K; 101.33 kPa; Liquid; Standard Abbe refractometry

COC(C)=O [methyl ethanoate]
[1]
Conditions | vapor or sublimation pressure [kPa]
305.21 K | 39.85
305.85 K | 41.28
306.84 K | 42.46
307.84 K | 44.04
308.13 K | 45.37
308.75 K | 46.97
309.72 K | 48.14
310.17 K | 49.41
311.19 K | 50.42
311.59 K | 51.81
312.76 K | 53.53
313.38 K | 54.58
313.74 K | 55.9
314.18 K | 57.49
314.88 K | 58.59
315.56 K | 60.05
316.06 K | 61.43
316.57 K | 62.5
317.05 K | 63.9
318.34 K | 66.51
318.69 K | 67.81
319.37 K | 69.23
319.93 K | 70.45
320.11 K | 71.01
320.34 K | 71.9
320.65 K | 73.35
321.34 K | 74.58
321.46 K | 75.27
321.72 K | 76.13
322.07 K | 77.22
322.36 K | 77.87
322.62 K | 78.83
323.07 K | 80.15
323.49 K | 81.23
324.29 K | 82.59
324.58 K | 83.84
324.95 K | 85.23
325.33 K | 86.76
325.71 K | 87.86
326.25 K | 89.23
326.63 K | 90.98
327.08 K | 92.06
327.54 K | 93.46
328 K | 94.82
328.17 K | 96.1
328.96 K | 97.67
329.38 K | 99.14
329.55 K | 100.18
329.86 K | 101.32
330.09 K | 102.6
330.43 K | 104.14
330.97 K | 105.19
331.43 K | 106.75
331.76 K | 107.92
332.06 K | 109.42
332.52 K | 110.71
332.77 K | 112.16
333.1 K | 113.39
333.6 K | 114.47
333.94 K | 115.87
334.06 K | 117.43
334.27 K | 118.52
334.73 K | 120.12
335.06 K | 121.46
335.23 K | 122.57
335.73 K | 123.95
336.07 K | 125.35
336.48 K | 126.88
336.86 K | 127.85
337.19 K | 129.37
337.53 K | 130.87
337.78 K | 131.93
337.9 K | 133.48
338.15 K | 134.72
338.66 K | 136.16
338.82 K | 137.37
339.07 K | 138.56
339.41 K | 140.07
339.66 K | 141.45
339.95 K | 142.53
340.33 K | 144.04
340.49 K | 145.51
340.95 K | 146.43
341.08 K | 147.88
341.45 K | 149.13
341.79 K | 150.58
342 K | 151.93
342.37 K | 153.34
342.46 K | 154.61
342.85 K | 155.92
343.21 K | 157.52
343.36 K | 158.57
343.46 K | 160.01
343.67 K | 161.1
344.09 K | 162.7
344.46 K | 164.2
344.67 K | 165.28
344.88 K | 166.78
345.05 K | 168.02
345.26 K | 169.24
345.47 K | 170.37
345.84 K | 171.92
345.96 K | 173.2

Conditions | mass density [kg/m3]
[1], 318.15 K, 101.33 kPa | 900.19

Conditions | refractive index
[2] | 1.3486
